Reference: publication PMC3402541, “Guanidylation and Tail Effects in Cationic Antimicrobial Lipopeptoids” (PLoS ONE, 2012)
Values after ≈ are worked out from the molar mass of the structure shown. Where a SMILES comes first, the peptide text is derived from it. [ ]: non-standard residue; d: D form. The star is where a group is joined. Arachidoyl = CCCCCCCCCCCCCCCCCCCC(=O)*; Nlys = NCCCCNCC(=O)O

Tests used:
MRSE CAN-ICU 61589 = assay type: cell-based, methicillin-resistant S. epidermidis; details: CAN-ICU 61589, 24 h
Procedure: (§1) Antimicrobial activity of the purified lipopeptoids was determined without replication against a panel of clinically relevant and standard reference bacterial strains according to CLSI macrobroth standards. Stock solutions at 512 µg/mL were prepared in water, with DMSO as needed, and testing was performed in glass test tubes using Muller-Hinton broth and bacteria adjusted to 5 × 10^5 CFU/mL. Bacteria were incubated with the lipopeptoid of interest for 24 hr at 37°C prior to reading.
(§2) The bacteria Staphylococcus aureus ATCC 29213, methicillin-resistant S. aureus ATCC 33592, Staphylococcus epidermidis ATCC 14990, Enterococcus faecalis ATCC 29212, E. faecium ATCC 27270, Streptococcus pneumoniae ATCC 49619, Escherichia coli ATCC 25922, Pseudomonas aeruginosa ATCC 27853, and Klebsiella pneumoniae ATCC 13883 were acquired from the American Type Culture Collection (ATCC) and used as quality controls. The clinical strains methicillin-resistant S. epidermidis (MRSE) CAN-ICU 61589, E. coli CAN-ICU 61714, E. coli CAN-ICU 63074, P. aeruginosa CAN-ICU 62308, Stenotrophomonas maltophilia CAN-ICU 62584, Acinetobacter baumannii CAN-ICU 63169 were obtained from hospitals across Canada as part of the CAN-ICU studies, while methicillin-susceptible S. epidermidis (MSSE) 81388 was obtained from the 2008 CANWARD study.
(§3) After subculturing the relevant bacteria twice from frozen stock, in vitro activities of the antimicrobials were determined by macrobroth dilution methodology in accordance with the Clinical and Laboratory Standards Institute (CLSI) guidelines (3). The MICs were determined using glass test tubes (2 mL/tube) containing doubling antimicrobial dilutions of cation adjusted Mueller-Hinton broth inoculated to achieve a final concentration of approximately 5 x 10^5 CFU/mL, incubated in ambient air for 24 hr prior to reading. Colony counts were performed periodically to confirm inocula. The ATCC organisms […] ATCC 49619, Staphylococcus aureus ATCC 29213, Enterococcus faecalis ATCC 29212, Escherichia coli ATCC 25922, and Pseudomonas aeruginosa ATCC 27853 were used as quality control and to allow easy comparison to previously tested antimicrobials. Each test in this series was performed without replication. In our experience with cationic amphiphiles the results are accurate to within a single doubling.

E.coli CAN-ICU 63074 = assay type: cell-based, Escherichia coli; details: CAN-ICU 63074, 24 h
Procedure: as §1, §2, §3

E.coli CAN-ICU 61714 = assay type: cell-based, Escherichia coli; details: CAN-ICU 61714, 24 h
Procedure: as §1, §2, §3

E.coli ATCC 25922 = assay type: cell-based, Escherichia coli; details: ATCC 25922, 24 h
Procedure: as §1, §2, §3

[1] = test system: A. baumannii CAN-ICU 63169; assay type: cell-based, Acinetobacter baumannii; details: CAN-ICU 63169, 24 h
Procedure: as §1, §2, §3

E. faecalis ATCC 29212 = assay type: cell-based, Enterococcus faecalis; details: ATCC 29212, 24 h
Procedure: as §1, §2, §3

S.pneumoniae ATCC 49619 = assay type: cell-based, Streptococcus pneumoniae; details: ATCC 49619, 24 h
Procedure: as §1, §2, §3

MSSE 81388 CANWARD 2008 = assay type: cell-based, methicillin-susceptible S. epidermidis; details: 24 h
Procedure: as §1, §2, §3

[2] = test system: S. maltophilia CAN-ICU 62584; assay type: cell-based, Stenotrophomonas maltophilia; details: CAN-ICU 62584, 24 h
Procedure: as §1, §2, §3

S.aureus ATCC 29213 = assay type: cell-based, Staphylococcus aureus; details: ATCC 29213, 24 h
Procedure: as §1, §2, §3

P.aeruginosa ATCC 27853 = assay type: cell-based, Pseudomonas aeruginosa; details: ATCC 27853, 24 h
Procedure: as §1, §2, §3

[3] = test system: P.aeruginosa CAN-ICU 62308; assay type: cell-based, Pseudomonas aeruginosa; details: CAN-ICU 62308, 24 h
Procedure: as §1, §2, §3

ovine erythrocytes = experiment: Haemolytic assay; assay type: cell-based, sheep; details: ovine erythrocytes in Tris buffered saline, 30 minutes, absorbance of supernatant at 540 nm
Procedure: Mammalian cell toxicity was determined by measuring lysis of ovine erythrocytes, a standard model for human cell toxicity. Cells were prewashed with Tris buffered saline and then incubated with a variety of lipopeptoid concentrations for 30 minutes. Following centrifugation, lysis was evaluated by testing the absorbance of the solution at 540 nm, with 0.5% NH4OH used as a positive control.
Toxicity to mammalian cells was determined using a sheep red blood cell (erythrocyte) haemolytic assay (4). Erythrocytes were washed and resuspended in Tris buffered saline prior to use, at a concentration of 1.46 - 4.5 x 10^9 cells/mL (on average 3.08 x 10^9 cells/mL). The cell suspension was diluted with varying concentrations of antimicrobials, from 50 μg/mL to 1 mg/mL and incubated for thirty minutes (final erythrocyte concentration 4.08 x 10^8 cells/mL). The samples were centrifuged following treatment and the absorbance of the supernatant was measured at 540 nm. A solution of 0.5% […] was used as a positive control, with normal buffered solution as the negative control. The toxicity was assessed as a function of percent haemolysis.

MRSA ATCC 33592 = assay type: cell-based, methicillin-resistant S. aureus; details: ATCC 33592, 24 h
Procedure: as §1, §2, §3

E. faecium ATCC 27270 = assay type: cell-based; details: ATCC 27270, 24 h
Procedure: as §1, §2, §3

K.pneumoniae ATCC 13883 = assay type: cell-based, Klebsiella pneumoniae; details: ATCC 13883, 24 h
Procedure: as §1, §2, §3

MIC MRSE (MRSE CAN-ICU 61589)	MIC MRSE in the presence of 4% bovine serum albumin (MRSE CAN-ICU 61589)	MIC E.coli (E.coli CAN-ICU 63074)	MIC E.coli in the presence of 4% bovine serum albumin (E.coli CAN-ICU 63074)	MIC E.coli (E.coli CAN-ICU 61714)	MIC E.coli in the presence of 4% bovine serum albumin (E.coli CAN-ICU 61714)	MIC E.coli (E.coli ATCC 25922)	MIC E.coli in the presence of 4% bovine serum albumin (E.coli ATCC 25922)	MIC A. baumannii [1]	MIC A. baumannii in the presence of 4% bovine serum albumin [1]	MIC E. faecalis (E. faecalis ATCC 29212)	MIC E. faecalis in the presence of 4% bovine serum albumin (E. faecalis ATCC 29212)	MIC S.pneumoniae (S.pneumoniae ATCC 49619)	MIC S.pneumoniae in the presence of 4% bovine serum albumin (S.pneumoniae ATCC 49619)	MIC MSSE (MSSE 81388 CANWARD 2008)	MIC MSSE in the presence of 4% bovine serum albumin (MSSE 81388 CANWARD 2008)	MIC S. maltophilia [2]	MIC S. maltophilia in the presence of 4% bovine serum albumin [2]	MIC S.aureus (S.aureus ATCC 29213)	MIC S.aureus in the presence of 4% bovine serum albumin (S.aureus ATCC 29213)	Compound	further results
8 µg/mL (≈ 11.3 µM)	256 µg/mL	256 µg/mL (≈ 361 µM)	512 µg/mL	256 µg/mL (≈ 361 µM)	>512 µg/mL	256 µg/mL (≈ 361 µM)	512 µg/mL	128 µg/mL (≈ 181 µM)	>512 µg/mL	16 µg/mL (≈ 22.6 µM)	512 µg/mL	256 µg/mL (≈ 361 µM)	64 µg/mL	8 µg/mL (≈ 11.3 µM)	256 µg/mL	256 µg/mL (≈ 361 µM)	>512 µg/mL	16 µg/mL (≈ 22.6 µM)	512 µg/mL	CCCCCCCCCCCCCCCCCCCC(=O)N(CCCCNC(=N)N)CC(=O)NCC(=O)N(CCCCNC(=N)N)CC(N)=O [C20-NhargGNharg]	MIC P.aeruginosa (P.aeruginosa ATCC 27853): 512 µg/mL (≈ 722 µM); MIC P.aeruginosa in the presence of 4% bovine serum albumin (P.aeruginosa ATCC 27853): >512 µg/mL; MIC P.aeruginosa [3]: 256 µg/mL (≈ 361 µM); MIC P.aeruginosa in the presence of 4% bovine serum albumin [3]: >512 µg/mL; Percent haemolysis at 100µg/mL of compound (ovine erythrocytes): 71.87%; MIC MRSA (MRSA ATCC 33592): 16 µg/mL (≈ 22.6 µM); MIC MRSA in the presence of 4% bovine serum albumin (MRSA ATCC 33592): 512 µg/mL; MIC E. faecium (E. faecium ATCC 27270): 16 µg/mL (≈ 22.6 µM); MIC E. faecium in the presence of 4% bovine serum albumin (E. faecium ATCC 27270): 256 µg/mL; MIC K.pneumoniae (K.pneumoniae ATCC 13883): 128 µg/mL (≈ 181 µM); MIC K.pneumoniae in the presence of 4% bovine serum albumin (K.pneumoniae ATCC 13883): 512 µg/mL
8 µg/mL (≈ 12.8 µM)	512 µg/mL	128 µg/mL (≈ 205 µM)	>512 µg/mL	256 µg/mL (≈ 410 µM)	>512 µg/mL	256 µg/mL (≈ 410 µM)	>512 µg/mL	128 µg/mL (≈ 205 µM)	>512 µg/mL	16 µg/mL (≈ 25.6 µM)	512 µg/mL	128 µg/mL (≈ 205 µM)	512 µg/mL	8 µg/mL (≈ 12.8 µM)	256 µg/mL	128 µg/mL (≈ 205 µM)	>512 µg/mL	8 µg/mL (≈ 12.8 µM)	512 µg/mL	CCCCCCCCCCCCCCCCCCCC(=O)N(CCCCN)CC(=O)NCC(=O)N(CCCCN)CC(N)=O [C20-NlysGNlys] (Arachidoyl-[Nlys]-Gly-[Nlys]-NH2)	MIC P.aeruginosa (P.aeruginosa ATCC 27853): 256 µg/mL (≈ 410 µM); MIC P.aeruginosa in the presence of 4% bovine serum albumin (P.aeruginosa ATCC 27853): >512 µg/mL; MIC P.aeruginosa [3]: 256 µg/mL (≈ 410 µM); MIC P.aeruginosa in the presence of 4% bovine serum albumin [3]: >512 µg/mL; Percent haemolysis at 100µg/mL of compound (ovine erythrocytes): 33.51%; MIC MRSA (MRSA ATCC 33592): 16 µg/mL (≈ 25.6 µM); MIC MRSA in the presence of 4% bovine serum albumin (MRSA ATCC 33592): 512 µg/mL; MIC E. faecium (E. faecium ATCC 27270): 16 µg/mL (≈ 25.6 µM); MIC E. faecium in the presence of 4% bovine serum albumin (E. faecium ATCC 27270): 512 µg/mL; MIC K.pneumoniae (K.pneumoniae ATCC 13883): 128 µg/mL (≈ 205 µM); MIC K.pneumoniae in the presence of 4% bovine serum albumin (K.pneumoniae ATCC 13883): >512 µg/mL
